The molecules below were run against CCK receptor (assay: 125I-CCK-33 receptor binding assay). Conditions: tissue not stated for the values (methods given for rat pancreas and guinea pig brain cortex membranes); read-out: IC50, inhibition of specific 125I-CCK-33 binding.
Description: CCK-33 was radiolabeled with […] (2000 Ci/mmole) as described by Sankara et al. [J. Biol. Chem. 254: 9349-9351, (1979)]. Receptor binding was performed according to Innis and Snyder [Proc. Natl. Acad. Sci. 77: 6917-6921, (1980)] with the minor modification of adding the additional protease inhibitors, phenylmethane sulfonyl fluoride and o-phenanthroline. The latter two compounds have no effect on the ^125I-CCK receptor binding assay.
Male Sprague-Dawley rats (200-350g) were sacrificed by decapitation. The whole pancreas was dissected free of fat tissue and was homogenized in 20 volumes of ice-cold 50 mM, Tris HC1 (pH 7.7 at 25°C) with a Brinkman Polytron PT 10. The homogenates were centrifuged at 48,000 g for 10 min. Pellets were resuspended in Tris Buffer, centrifuged as above and resuspended in 200 volumes of binding assay buffer (50 mM Tris HC1, pH 7.7 at 25°C, 5 mM dithiothriethel, 0.1 mM bacitracin, 1.2 mM phenylmethane sulfonyl fluoride and 0.5 mM o-phenanthroline). For the binding assay, 25 µl of buffer (for total binding) or unlabeled CCK-8 sulfate to give a final concentration of luM (for nonspecific binding) or the compounds of Formula 1 (for determination inhibition of 125I-CCR binding) and 25 µl of 125I-CCK-33 (30,000-40,000 cpm) were added to 450 µl of the membrane suspensions in microfuge tubes. All assays were run in duplicate or triplicate. The reaction mixtures were incubated at 37°C for 30 minutes and centrifuged in a Beckman Microfuge (4 minutes) immediately after adding 1 ml of ice-cold incubation buffer. The supernatant was aspirated and discarded, pellets were counted with a Beckman gamma 5000.
CCK-33 was radiolabeled with and the binding was performed according to the description for the pancreas method with modifications according to Saito, et al. (J. Neurochem, 37, 483-490 (1981)).
Hall Hartley guinea pigs (300-500 g) were sacrificed by decapitation and the brains were removed and placed in ice-cold 50 mM, Tris HC1 plus 7.58 g/1 Tritma-7.4 (pH 7.4 at 25°C) Cerebral cortex was dissected and used as a receptor source. Each gram of fresh guinea pig brain tissue was homogenized in 10 ml of Tris/Trizma buffer with a Brinkman polytron PT-10. The homogenates were centrifuged at 42,000 g for 15 minutes. Pellets were resuspended in Tris Buffer, centrifuged as above and resuspended in 200 volumes of binding assay buffer (10 mM HEPES, pH 7.7 at 25°C, 5 mM Mg C12, […], 0.4% BSA (bovine serum albumin) and 0.25 mg/ml bacitracin). For the binding assay, 25 µl of buffer (for total binding) or unlabeled CCK-8 sulfate to give a final concentration of 1µM (for nonspecific binding) or the compounds of Formula 1 (for determination inhibition of ^125I-CCK binding) and 25 µl of ^125I-CCK-33 (30,00-40,000 cpm) were added to 450 µl of the membrane suspensions in microfuge tubes. All assays were run in duplicate or triplicate. The reaction mixtures were incubated at 25°C for 2 hours and centrifuged in a Beckman Microfuge (4 minutes) immedidately after adding 1 ml of ice-cold incubation buffer. The supernatant was aspirated and discarded, pellets were counted with a Beckman gamma 5000.

| SMILES | IC50 [nM] |
| --- | --- |
| CC(=O)N[C@@H](Cc1c[nH]c2ccccc12)C(=O)NC1CCc2ccccc2N(CC(=O)OC(C)(C)C)C1=O (single isomer, unassigned) [l-t-Butoxycarbonylmethyl-3-(L-N-acetyltryptophanyl)-aminohomodihydrocarbostyril] | 2800 |
| CC(=O)N[C@H](Cc1c[nH]c2ccccc12)C(=O)NC1CCc2ccccc2N(CC(=O)OC(C)(C)C)C1=O (single isomer, unassigned) [1-t-Butoxycarbonylmethyl-3-(D-N-acetyltryptophanyl)-aminohomodihydrocarbostyril] | 1600 |
| COC(=O)CN1C(=O)C(NCc2c[nH]c3ccccc23)CCc2ccccc21 (racemic) [l-Carbomethoxymethyl-3-(3-indolemethyl)amino homodihydrocarboxtyril] | 15000 |
| CC(C)(C)OC(=O)CN1C(=O)C(NC(=O)[C@H](Cc2c[nH]c3ccccc23)NC(=O)OCc2ccccc2)CCc2ccccc21 (single isomer, unassigned) [l-t-Butoxycarbonylmethyl-3(-L-N-carbobenzyloxytrypto- phanyl)aminohomodihydrocarbostyril] | 1200 |
| CCOC(=O)C(CCc1ccccc1)NC1CCc2ccccc2N(C)C1=O (single isomer, unassigned) [1-Methyl-3-(1-Carboethoxy-3-phenyl-1-propyl) aminohomodihydrocarbostyril] | 60000 |
